Where a name gives a salt, the structure may show the parent alone.

Turning to `CC(C)n1c(=O)c(C(=O)NCC2CCN(CC3(O)CCOCC3)CC2)cc2c(Cl)cccc21`, the melting point (as a rule, the temperature, or range, at which the solid turns liquid) came out at 227 °C.

In the case of `Cc1cccc2c1cc(C(=O)NCC1CCN(CC3(O)CCOCC3)CC1)c(=O)n2C(C)C`, the melting point was determined as 222 °C.

`CC(C)n1c(=O)c(C(=O)NCC2CCN(CC3(O)CCOCC3)CC2)cc2c(F)cccc21` (as salt: hydrochloride) returned a melting point of 275.7 °C.

As for `Cc1cccc2c1cc(C(=O)NCC1CCN(CC3CCNCC3)CC1)c(=O)n2C(C)C` (as salt: hydrochloride), the melting point came to 240.7 °C.

(Values after patent US7964727B2, “Quinolonecarboxylic acid compounds having 5-HT4 receptor agonistic activity” (Pfizer Inc., priority 2003, dated 2011).)
